Biological target: GST-hRIPK1 (8-327) (Homo sapiens (Human), UniProt Q13546)
Experiment: Fluorescent Polarization Binding (FP Binding) assay, RIPK1
Details: GST-hRIPK1 (8-327), mean of at least two independent experiments
Outline: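 Binding by fluorescence polarisation at RT: 10 nM baculovirus-expressed GST-hRIPK1 (8-327) and 5 nM fluorescent ligand, 30 min, in 50 mM HEPES pH 7.5, 50 mM MgCl2, 0.02% CHAPS, 1% DMSO. FP read at ex 531/em 595 nm. IC50 from normalised percent inhibition, mean of ≥2 experiments.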

Chain of GST-hRIPK1 (8-327) (Q13546 8-327): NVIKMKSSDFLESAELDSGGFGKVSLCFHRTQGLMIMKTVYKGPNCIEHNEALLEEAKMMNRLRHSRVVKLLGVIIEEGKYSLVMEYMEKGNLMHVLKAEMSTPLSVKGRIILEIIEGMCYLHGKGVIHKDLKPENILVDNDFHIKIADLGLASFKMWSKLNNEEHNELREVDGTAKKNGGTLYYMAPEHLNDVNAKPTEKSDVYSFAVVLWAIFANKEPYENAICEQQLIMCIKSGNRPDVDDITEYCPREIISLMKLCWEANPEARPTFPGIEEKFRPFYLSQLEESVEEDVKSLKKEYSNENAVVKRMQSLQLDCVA

Row | SMILES | IC50
1 | N#Cc1cncc2c1OCCN(C(=O)C1(F)CCN(c3ccc4c(n3)CNC4)CC1)C2 [Example 286, 4-[1-(6,7-dihydro-5H-pyrrolo[3,4-b]pyridin-2-yl)-4-fluoro-piperidine-4-carbonyl]-3,5-dihydro-2H-pyrido[3,4-f][1,4]oxazepine-9-carbonitrile] | > 1000 nM
2 | COc1nc(N2CCC(C(=O)N3CCOc4c(C#N)cncc4C3)CC2)c(F)cc1F [Example 287, 4-[1-(3,5-difluoro-6-methoxy-2-pyridyl)piperidine-4-carbonyl]-3,5-dihydro-2H-pyrido[3,4-f][1,4]oxazepine-9-carbonitrile] | 0.1 to 100 nM
3 | N#Cc1cncc2c1OCCN(C(=O)C1CCN(c3nc(F)c(F)cc3F)CC1)C2 [Example 288, 4-[1-(3,5,6-trifluoro-2-pyridyl)piperidine-4-carbonyl]-3,5-dihydro-2H-pyrido[3,4-f][1,4]oxazepine-9-carbonitrile] | 0.1 to 100 nM
4 | COc1nc(N2CCC(OC)(C(=O)N3CCOc4c(C#N)cncc4C3)CC2)c(F)cc1F [Example 289, 4-[1-(3,5-difluoro-6-methoxy-2-pyridyl)-4-methoxy-piperidine-4-carbonyl]-3,5-dihydro-2H-pyrido [3,4-f][1,4]oxazepine-9-carbonitrile] | 0.1 to 100 nM
5 | CC(C)(C(=O)N1CCOc2c(C#N)cncc2C1)[C@H]1C[C@H](Cn2nccn2)C1 [Example 290, trans-4-[2-methyl-2-[3-(triazol-2-ylmethyl)cyclobutyl]propanoyl]-3,5-dihydro-2H-pyrido [3,4-f][1,4]oxazepine-9-carbonitrile] | 100 to 1000 nM
6 | CC(C)(C(=O)N1CCOc2c(C#N)cncc2C1)[C@H]1C[C@@H](Cn2nccn2)C1 [Example 291, cis-4-[2-methyl-2-[3-(triazol-2-ylmethyl)cyclobutyl]propanoyl]-3,5-dihydro-2H-pyrido[3,4-f][1,4]oxazepine-9-carbonitrile] | 100 to 1000 nM
7 | CC(C)(C(=O)N1CCOc2c(C#N)cncc2C1)[C@H]1C[C@H](Cn2ccnn2)C1 [Example 292, trans-4-[2-methyl-2-[3-(triazol-1-ylmethyl)cyclobutyl]propanoyl]-3,5-dihydro-2H-pyrido [3,4-f][1,4]oxazepine-9-carbonitrile] | > 1000 nM
8 | CC(C)(C(=O)N1CCOc2c(C#N)cncc2C1)[C@H]1C[C@@H](Cn2ccnn2)C1 [Example 293, cis-4-[2-methyl-2-[3-(triazol-1-ylmethyl)cyclobutyl]propanoyl]-3,5-dihydro-2H-pyrido [3,4-f][1,4]oxazepine-9-carbonitrile] | > 1000 nM
9 | N#Cc1cncc2c1OCCN(C(=O)C1(F)CCN(c3ncc(F)n4ncnc34)CC1)C2 [Example 294, 4-[4-fluoro-1-(5-fluoro-[1,2,4]triazolo[1,5-a]pyrazin-8-yl)piperidine-4-carbonyl]-3,5-dihydro-2H-pyrido [3,4-f][1,4]oxazepine-9-carbonitrile] | 0.1 to 100 nM
10 | COC1CN(c2ncc(F)cn2)CCC1C(=O)N1CCOc2c(C#N)cncc2C1 (stereo not shown) [Example 309, 4-[1-(5-fluoropyrimidin-2-yl)-3-methoxy-piperidine-4-carbonyl]-3,5-dihydro-2H-pyrido[3,4-f][1,4]oxazepine-9-carbonitrile] | 100 to 1000 nM
